Active and inactive are the calls of the source. The rule behind the calls is not given here. Peptide text beside a SMILES is read from it. * marks the point of attachment. X1 = CN(C)c1ccc2c(-c3ccc(C(=O)*)cc3C(=O)O)c3ccc(=[N+](C)C)cc-3oc2c1
Key:
NSC-34 [1] = test: Inhibition of interaction of human SOD1 G93A mutant with YFP-tagged MDH1 transfected in mouse NSC-34 cells after 48 hrs by pull-down immunoprecipitation analysis; assay type: cell-based
[2] = Drug penetration in mouse NSC-34 cells at 1 uM after 24 hrs by fluorescence confocal microscopy; assay type: ADME, cell-based; settings: nsc-34, 24 h
[3] = Increase in ATP level in mouse NSC-34 cells expressing human SOD1 G93A mutant at 1 uM after 48 hrs relative to cells expressing wild type human SOD1; assay type: functional
[4] = Protective effect against 2 mg/ml glucose-induced toxicity in mouse NSC-34 cells expressing GFP-tagged human SOD1 G93A mutant assessed as increase in survival at 1 uM after 48 hrs by methylene blue assay relative to 2 mg/ml glucose-treated cells expressing GFP-tagged wild type human SOD1; assay type: functional
[5] = Protective effect against rotenone-induced toxicity in mouse NSC-34 cells expressing GFP-tagged human SOD1 G93A mutant assessed as increase in survival at 1 uM after 48 hrs by methylene blue assay relative to rotenone-treated cells expressing GFP-tagged wild type human SOD1; assay type: functional
NSC-34 [6] = test: Inhibition of interaction of CFP-tagged human SOD1 G93A mutant with YFP-tagged MDH1 transfected in mouse NSC-34 cells by FRET assay; assay type: cell-based; design: scale not given: the % may be the effect or the level left

| Compound | inhibition (NSC-34 [1]) | Drug uptake [2] | Activity [3] | Activity [4] | Activity [5] | Activity (NSC-34 [6]) |
| --- | --- | --- | --- | --- | --- | --- |
| CC(C)C[C@H](NC(=O)[C@H](CC(N)=O)NC(=O)c1ccc(-c2c3ccc(=[N+](C)C)cc-3oc3cc(N(C)C)ccc23)c(C(=O)O)c1)C(=O)N[C@@H](CO)C(=O)O | inactive | 100% |  |  |  |  |
| CC[C@H](C)[C@H](NC(=O)[C@H](Cc1ccccc1)NC(=O)[C@H](CCC(=O)O)NC(=O)CNC(=O)[C@H](CCCCN)NC(=O)[C@H](CC(C)C)NC(=O)[C@H](Cc1c[nH]c2ccccc12)NC(=O)[C@H](CO)NC(=O)c1ccc(-c2c3ccc(=[N+](C)C)cc-3oc3cc(N(C)C)ccc23)c(C(=O)O)c1)C(=O)N[C@H](C(=O)N[C@H](C(=O)N[C@H](C(=O)N[C@@H](CCC(N)=O)C(=O)N[C@@H](CCC(N)=O)C(=O)N[C@@H](CCCNC(=N)N)C(=O)NCC(=O)N[C@@H](C)C(=O)N[C@@H](C)C(=O)N[C@H](C(=O)N[C@H](C(=O)N[C@@H](CCCCN)C(=O)N[C@@H](C)C(=O)N[C@@H](CCCNC(=N)N)C(=O)N[C@@H](CCCCN)C(=O)O)[C@@H](C)CC)C(C)C)C(C)C)[C@@H](C)O)[C@@H](C)O (X1-SWLKGEFITTVQQRGAAVIKARK-OH) | Active | 100% | 90% | 97% | 98% |  |
| H-GQIAYSLLYSIGNGS-OH |  |  |  |  |  | inactive |
| H-SWLKGEFITTVQQRGAAVIKARK-OH |  |  |  |  |  | 79% |
